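How tested: cells in 96-well plates exposed to compound for 48 hours at five concentrations. GI50 = concentration required for 50% inhibition of growth.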 Activity calls are given as the source filed them. Rule as the data show it: active = GI50 up to about 1.1 µM and inactive = higher.
Tests used:
Test in all cases: DTP human tumour cell line panel, 48 h
[1] = system: IGROV-1
[2] = system: NCI-H460
[3] = system: RPMI-8226
[4] = system: MOLT-4
[5] = system: SW-620
[6] = system: SK-MEL-5
[7] = system: ACHN
[8] = system: SK-MEL-28
[9] = system: MCF7
[10] = system: K562
[11] = system: MDA-MB-435
[12] = system: HOP-62
[13] = system: OVCAR-8
[14] = system: MDA-MB-231
[15] = system: CAKI-1
[16] = system: SF-295
[17] = system: HCT-15
[18] = system: 786-0
[19] = system: CCRF-CEM
[20] = system: A498
[21] = system: HCT-116
[22] = system: SN12C
[23] = system: COLO 205
[24] = system: Hs-578T
[25] = system: SF-539
[26] = system: DU-145
[27] = system: HOP-92
[28] = system: UACC-257
[29] = system: OVCAR-5
[30] = system: PC-3
[31] = system: RXF 393
[32] = system: T47D
[33] = system: LOX IMVI
[34] = system: SNB-75
[35] = system: OVCAR-3
[36] = system: NCI/ADR-RES
[37] = system: SF-268
[38] = system: HCC 2998
[39] = system: HL-60
[40] = system: A549
[41] = system: NCI-H226
[42] = system: SR
[43] = system: NCI-H23
[44] = system: HT-29
[45] = system: OVCAR-4
[46] = system: SK-OV-3
[47] = system: NCI-H522
[48] = system: SNB-19
[49] = system: EKVX
[50] = system: MDA-N
[51] = system: Malme-3M
[52] = system: U-251
[53] = system: UACC-62
[54] = system: SK-MEL-2
[55] = system: KM12
[56] = system: TK-10
[57] = system: M14
[58] = system: BT-549

Cc1c2ccncc2c(C)c2c1sc1ccccc12 was tested, and the GI50 [1] was 5.94 µM (inactive), the GI50 [2] was 2.31 µM (inactive) and the GI50 [3] was 6.87 µM (inactive). The GI50 [4] was 2.33 µM (inactive), the GI50 [5] was 7.06 µM (inactive) and the GI50 [6] was 7.87 µM (inactive). For the same compound, the GI50 [7] was 3.85 µM (inactive), the GI50 [8] was 13.3 µM (inactive) and the GI50 [9] was 1.84 µM (inactive). For the same compound, the GI50 [10] was 6.5 µM (inactive), the GI50 [11] was 15 µM (inactive) and the GI50 [12] was 7.38 µM (inactive). The GI50 [13] was 8.22 µM (inactive), the GI50 [14] was 16.5 µM (inactive) and the GI50 [15] was 7.45 µM (inactive). For the same compound, the GI50 [16] was 10.1 µM (inactive), the GI50 [17] was 7.24 µM and the GI50 [18] was 4.86 µM (inactive). For the same compound, the GI50 [19] was 3.31 µM (inactive), the GI50 [20] was 8.47 µM (inactive) and the GI50 [21] was 4.49 µM (inactive). The GI50 [22] was 9.38 µM (inactive), the GI50 [23] was 12.3 µM (inactive) and the GI50 [24] was 13.6 µM (inactive). For the same compound, the GI50 [25] was 6.73 µM (inactive), the GI50 [26] was 13.3 µM (inactive) and the GI50 [27] was 12 µM (inactive). The GI50 [28] was 19.3 µM (inactive), the GI50 [29] was 21 µM (inactive) and the GI50 [30] was 11.1 µM (inactive). For the same compound, the GI50 [31] was 10 µM (inactive), the GI50 [32] was 13.1 µM (inactive) and the GI50 [33] was 6.18 µM (inactive). For the same compound, the GI50 [34] was 14.6 µM (inactive), the GI50 [35] was 14.6 µM (inactive) and the GI50 [36] was 7.08 µM (inactive). For the same compound, the GI50 [37] was 11.3 µM (inactive), the GI50 [38] was 11.8 µM (inactive) and the GI50 [39] was 2.9 µM (inactive). The GI50 [40] was 4.33 µM (inactive), the GI50 [41] was 8.13 µM (inactive) and the GI50 [42] was 2.19 µM (inactive). For the same compound, the GI50 [43] was 8.2 µM (inactive), the GI50 [44] was 6.1 µM (inactive) and the GI50 [45] was 14.3 µM (inactive). For the same compound, the GI50 [46] was 13.1 µM (inactive), the GI50 [47] was 5.41 µM (inactive) and the GI50 [48] was 9.4 µM (inactive). The GI50 [49] was 4.75 µM (inactive), the GI50 [50] was 13.1 µM (inactive) and the GI50 [51] was 10.8 µM (inactive). The GI50 [52] was 10.8 µM (inactive), the GI50 [53] was 5.24 µM (inactive) and the GI50 [54] was 21 µM (inactive). For the same compound, the GI50 [55] was 12.1 µM (inactive), the GI50 [56] was 16.9 µM (inactive) and the GI50 [57] was 11.6 µM (inactive). The GI50 [58] was 16.7 µM (inactive).

Source: ChEMBL document CHEMBL1201862, “PubChem BioAssay data set” (2004)
